Measurements taken from publication PMC8958510 (Journal of Medicinal Chemistry, 2022).
Converted amounts (≈) assume the structure as drawn.

Tests used:
[1] = molecular target: T1, recombinant human sEH (Homo sapiens, UniProt P34913); assay: Human soluble epoxide hydrolase inhibition, fluorescence-based assay (CMNPC substrate); type: biochemical; conditions: recombinant human sEH; average of three replicates; read-out: hsEH IC50
T1 sequence (P34913 1-555): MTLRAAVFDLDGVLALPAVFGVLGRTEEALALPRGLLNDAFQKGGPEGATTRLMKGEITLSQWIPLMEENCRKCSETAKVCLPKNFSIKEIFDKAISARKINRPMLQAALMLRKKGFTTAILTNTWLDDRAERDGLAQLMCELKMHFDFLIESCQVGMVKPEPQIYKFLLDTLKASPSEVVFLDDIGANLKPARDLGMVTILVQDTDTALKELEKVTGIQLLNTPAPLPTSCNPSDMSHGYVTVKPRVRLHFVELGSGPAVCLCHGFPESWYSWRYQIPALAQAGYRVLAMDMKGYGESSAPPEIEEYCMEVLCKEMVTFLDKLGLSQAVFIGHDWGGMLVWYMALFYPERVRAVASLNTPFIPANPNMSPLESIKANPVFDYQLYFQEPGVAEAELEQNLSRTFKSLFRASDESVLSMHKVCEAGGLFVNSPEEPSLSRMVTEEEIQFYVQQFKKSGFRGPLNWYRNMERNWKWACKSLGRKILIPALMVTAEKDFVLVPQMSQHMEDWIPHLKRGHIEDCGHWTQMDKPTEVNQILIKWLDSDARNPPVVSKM
Description: (§1) Human and mouse soluble epoxide hydrolase inhibition assay. The inhibitory activity of
(§2) the target compounds toward human and mouse sEH was determined by a fluorescence-based
(§3) assay, using purified recombinant human or mouse sEH proteins and CMNPC as a fluorescent
(§4) substrate.6 The enzymes were incubated at 30 °C with the inhibitors ([I]final = 0.4-100,000
(§5) nM) for 5 min in 100 mM sodium phosphate buffer (200 µL, pH 7.4) containing 0.1 mg mL‒1
(§6) of BSA and 1% of DMSO. The substrate (CMNPC) was then added ([S]final = 5 µM). Activity
(§7) was assessed by measuring the appearance of the fluorescent 6-methoxynaphthaldehyde
(§8) (Molecular Devices). Results were obtained by regression analysis from a linear region of the
(§9) curve and are given as IC50 values, i.e., the concentration of the compound that reduces the
(§10) sEH activity by 50%. All measurements were performed in triplicate and the mean is

[2] = molecular target: T2, recombinant human AChE (Homo sapiens, UniProt P22303); type: biochemical; conditions: recombinant human AChE; mean ± SEM; read-out: hAChE IC50
T2 construct: purchased Sigma-Aldrich, Milan, Italy
Description: (§11) Human and mouse acetylcholinesterase and human butyrylcholinesterase inhibition
(§12) assay. The inhibitory activity of the target compounds toward recombinant human AChE
(§13) (Sigma-Aldrich, Milan, Italy), recombinant mouse AChE (Bio-Techne, Milan, Italy) and
(§14) human serum BChE (Sigma-Aldrich, Milan, Italy) was assessed by Ellman’s method,8 using
(§15) Stock solutions of the AChEs were prepared by
(§16) dissolving enzyme lyophilized powder (hAChE) or diluting the enzyme commercial solution
(§17) (mAChE) in 0.1 M potassium phosphate (pH 8.0) containing 0.1% Triton X-100, whereas the
(§18) stock solution of hBChE was prepared in 0.1% aq. gelatin and the stock solutions of the
(§19) compounds to be tested were made in MeOH (2-4 mM). The assay solution consisted of 0.02
(§20) unit mL‒1 of the enzyme, 340 M 5,5’-dithiobis(2-nitrobenzoic acid), and 550 M of the
(§21) substrate acetylthiocholine iodide (for AChE assay) or butyrylthiocholine iodide (for BChE
(§22) assay) in 0.1 M potassium phosphate (pH 8.0). Blank solutions containing all components
(§23) except the enzymes were prepared to account for the non-enzymatic hydrolysis of the
(§24) Prior the addition of the substrate, the assay solutions were incubated at 37 °C for 20 min.
(§25) After the addition of the substrate, cuvettes were rapidly transferred into a Jasco V-530
(§26) double beam spectrophotometer equipped with thermostated cuvette holders (37 °C), in order
(§27) for 240 s. For each tested compound, five increasing concentrations were assayed in order to
(§28) achieve inhibition percentages of 20‒80%. Each concentration was assayed in triplicate. IC50
(§29) values were calculated from the inhibition plot (% inhibition vs log[inhibitor]) and are
(§30) expressed as mean ± SEM. Each IC50 value is the average of at least two experiments, each

[3] = molecular target: T3, recombinant mouse AChE (Mus musculus, UniProt P21836); assay: Mouse acetylcholinesterase inhibition, Ellman's method; type: biochemical
T3 construct: purchased Bio-Techne, Milan, Italy
T3 sequence (P21836 32-614): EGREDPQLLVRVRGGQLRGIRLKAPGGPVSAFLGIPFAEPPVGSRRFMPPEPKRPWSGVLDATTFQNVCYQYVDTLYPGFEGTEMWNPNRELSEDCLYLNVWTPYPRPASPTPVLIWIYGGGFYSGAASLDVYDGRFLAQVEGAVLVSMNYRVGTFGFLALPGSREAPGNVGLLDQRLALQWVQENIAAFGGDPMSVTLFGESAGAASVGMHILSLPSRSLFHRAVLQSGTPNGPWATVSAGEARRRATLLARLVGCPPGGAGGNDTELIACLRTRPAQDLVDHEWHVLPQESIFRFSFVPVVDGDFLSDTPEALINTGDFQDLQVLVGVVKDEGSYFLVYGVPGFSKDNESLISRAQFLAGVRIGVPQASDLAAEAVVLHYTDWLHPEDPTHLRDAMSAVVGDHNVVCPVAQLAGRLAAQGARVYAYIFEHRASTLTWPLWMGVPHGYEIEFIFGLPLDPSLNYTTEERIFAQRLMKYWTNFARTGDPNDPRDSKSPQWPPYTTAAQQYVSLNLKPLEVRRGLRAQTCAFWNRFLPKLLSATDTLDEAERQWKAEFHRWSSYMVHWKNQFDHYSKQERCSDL
Description: as §11, §12, §13, §14, §15, §16, §17, §18, §19, §20, §21, §22, §23, §24, §25, §26, §27, §28, §29, §30

[4] = molecular target: T4, human serum BChE (Homo sapiens, UniProt P06276); type: biochemical
T4 construct: human serum BChE (Sigma-Aldrich, Milan, Italy) was assessed by Ellman’s method; purchased Sigma-Aldrich, Milan, Italy; host or cells: human serum
Description: as §11, §12, §13, §14, §15, §16, §17, §18, §19, §20, §21, §22, §23, §24, §25, §26, §27, §28, §29, §30

[5] = system: SH-SY5Y cells; assay: Cytotoxicity in SH-SY5Y cells, propidium iodide stain; type: cell-based, human
Description: Cytotoxicity in SH-SY5Y cells. The cytotoxicity of the target compounds was evaluated in
Minimum Essential Medium / Ham’s-F12 (1:1, v/v) medium (Biowest), supplemented with
non-essential amino acids, 10% fetal bovine serum, 1 mM glutamine and 50 µg mL‒1
gentamycin (all reagents from Gibco, Thermo Fisher Scientific). For the experiments, cells
were seeded at 3 × 10^5 cells mL‒1 (100 µL per well) in 96-well plates (Nunc). After 24 h, the
test compounds were added concentrated from stock solutions in DMSO and culture medium
to triplicate wells to obtain the final different concentrations up to 100 µM in 0.1% DMSO.
Compounds were incubated for further 24 h. At termination, cytotoxicity was analyzed by the
propidium iodide (PI) fluorescence stain assay. All compounds were tested in three
independent experiments using different cell passages. The PI assay measures cell death. PI
enters into the cells with damaged membranes and greatly increases the fluorescence upon
binding to DNA. PI reagent (Molecular Probes) at the final concentration of 7.5 µg mL‒1 was
added to the cells and incubated for 1 h. The resulting fluorescence was measured by a Flx-
death induced by the compounds was calculated from to the fluorescence of treated cells (Ft)
relative to that of control cells (Fmin) and cells incubated with Triton X100 (Fmax) as the 0%
and 100% cell death, respectively [% = ((Ft-Fmin)/(Fmax-Fmin)) × 100]. All compounds
were tested in three independent experiments using different cell passages. LC50 values were
calculated for each experiment and the results are expressed as mean ± SD.

[6] = Microsomal stability, human liver microsomes; type: in vitro ADME
Description: (§31) Microsomal stability screen. The microsomal stability of the target compounds was
(§32) determined at the Innopharma Drug Screening and Pharmacogenomics Platform (Santiago de
(§33) Compostela, Spain). The human, rat and mice pooled microsomes, with a protein content of 20 mg mL‒1, were purchased from Tebu-Xenotech. The compounds were incubated in a 96-well microplate at 37 °C with the microsomes in 50 mM phosphate buffer (pH = 7.4) containing as cofactors 30 mM MgCl2, 10 mM NADP, 100 mM glucose-6-phosphate and 40
(§34) Samples (75 µL) were taken from each well at 0, 10, 20, 40 and 60 min and transferred to a microplate. 4 °C Acetonitrile (75 µL) and internal standard (rolipram) were then added for inactivating the microsomes, and water with 0.5% formic acid (30 µL) was subsequently added for improving the chromatographic conditions, keeping the mixtures at 4 °C. The plate was centrifuged at 46,000 g for 30 min at 15 °C and supernatants were taken and analyzed in a UPLC-MS/MS system (UPLC QSM Waters Acquity) using reverse phase Acquity UPLC® HSST3 1.7 μm (2.1 mm × 50 mm, Waters) as the stationary phase, 0.1% formic acid in water (A) / 0.1% formic acid in acetonitrile (B) as the mobile phase, a flow of 0.8 mL min‒1, and the
(§35) The metabolic stability of the compounds was calculated from the logarithm of the remaining compound at each of the time points studied.

[7] = Microsomal stability, mouse liver microsomes; type: in vitro ADME
Description: as §31, §32, §33, §34, §35

[8] = Microsomal stability, rat liver microsomes; type: in vitro ADME
Description: as §31, §32, §33, §34, §35

[9] = molecular target: T5, recombinant mouse sEH (Mus musculus, UniProt P34914); conditions: read-out: msEH IC50, average of three replicates
T5 sequence (P34914 1-554): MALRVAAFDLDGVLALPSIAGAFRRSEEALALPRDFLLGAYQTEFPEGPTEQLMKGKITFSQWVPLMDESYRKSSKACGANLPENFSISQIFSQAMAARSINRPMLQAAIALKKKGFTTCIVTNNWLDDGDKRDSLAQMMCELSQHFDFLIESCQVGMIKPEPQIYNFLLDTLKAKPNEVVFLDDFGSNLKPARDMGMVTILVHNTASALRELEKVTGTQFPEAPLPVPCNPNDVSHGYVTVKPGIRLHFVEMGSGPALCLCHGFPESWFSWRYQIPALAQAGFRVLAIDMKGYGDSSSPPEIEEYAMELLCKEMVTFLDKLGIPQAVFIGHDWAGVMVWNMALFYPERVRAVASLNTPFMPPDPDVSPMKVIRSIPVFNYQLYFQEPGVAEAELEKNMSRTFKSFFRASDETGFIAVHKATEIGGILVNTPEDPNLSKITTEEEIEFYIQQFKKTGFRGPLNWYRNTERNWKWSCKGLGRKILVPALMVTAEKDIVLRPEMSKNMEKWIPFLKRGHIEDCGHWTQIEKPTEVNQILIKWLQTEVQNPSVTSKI
Description: as §1, §2, §3, §4, §5, §6, §7, §8, §9, §10

[10] = Kinetic aqueous solubility screen (light scattering); conditions: 1% DMSO / 99% PBS
Description: Aqueous solubility screen. The kinetic aqueous solubility of the target compounds was
as §32
Compostela, Spain). Ten mM stock solutions of the tested compounds were serially diluted,
NEPHELOstar Plus reader (BMG LABTECH). The results were adjusted to a segmented
linear regression to obtain the maximum concentration in which the compounds were soluble.

T4 sequence (P06276 29-602): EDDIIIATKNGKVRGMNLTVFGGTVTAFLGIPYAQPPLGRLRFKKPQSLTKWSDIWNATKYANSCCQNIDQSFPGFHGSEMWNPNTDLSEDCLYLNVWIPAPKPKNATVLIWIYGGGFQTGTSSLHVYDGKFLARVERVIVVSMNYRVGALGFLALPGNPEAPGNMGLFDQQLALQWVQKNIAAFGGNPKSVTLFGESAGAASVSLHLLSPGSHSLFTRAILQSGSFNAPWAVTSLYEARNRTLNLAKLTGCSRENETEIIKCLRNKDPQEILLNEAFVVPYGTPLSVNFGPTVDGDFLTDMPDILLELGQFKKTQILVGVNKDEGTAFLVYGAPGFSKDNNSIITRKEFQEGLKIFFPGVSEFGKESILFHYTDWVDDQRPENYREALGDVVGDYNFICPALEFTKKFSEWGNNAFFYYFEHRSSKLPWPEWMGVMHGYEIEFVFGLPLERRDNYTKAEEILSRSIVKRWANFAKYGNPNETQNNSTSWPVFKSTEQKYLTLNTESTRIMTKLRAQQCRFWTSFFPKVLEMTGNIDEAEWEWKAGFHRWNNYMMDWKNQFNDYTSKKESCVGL
T2 sequence (P22303 32-614): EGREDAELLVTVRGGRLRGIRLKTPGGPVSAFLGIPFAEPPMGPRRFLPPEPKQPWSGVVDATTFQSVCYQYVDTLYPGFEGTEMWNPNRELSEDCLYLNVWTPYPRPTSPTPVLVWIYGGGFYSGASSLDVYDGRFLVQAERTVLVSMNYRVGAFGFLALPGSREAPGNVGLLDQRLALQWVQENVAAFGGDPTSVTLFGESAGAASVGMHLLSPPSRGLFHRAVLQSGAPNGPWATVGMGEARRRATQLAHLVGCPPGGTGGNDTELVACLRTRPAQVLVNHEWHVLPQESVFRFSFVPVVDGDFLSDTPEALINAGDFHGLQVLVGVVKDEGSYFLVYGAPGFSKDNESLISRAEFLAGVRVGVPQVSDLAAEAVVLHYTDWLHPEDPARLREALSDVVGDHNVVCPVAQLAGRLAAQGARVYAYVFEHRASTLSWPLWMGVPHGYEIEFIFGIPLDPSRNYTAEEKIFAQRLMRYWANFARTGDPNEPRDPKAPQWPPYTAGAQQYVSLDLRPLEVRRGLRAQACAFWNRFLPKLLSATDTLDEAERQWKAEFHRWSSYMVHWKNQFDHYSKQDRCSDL

## O=C(Nc1ccc(OC(F)(F)F)cc1)NC1CCN(C(=O)CCCCNc2c3c(nc4cc(Cl)ccc24)CCCC3)CC1 [12c, 1-{1-{5-[(6-Chloro-1,2,3,4-tetrahydroacridin-9-yl)amino]pentanoyl}piperidin-4-yl}-3-[4-(trifluoromethoxy)phenyl]urea]
[1]
  IC50: 4.6 nM
[2]
  IC50: 12.9 ± 1.6 nM
[3]
  mAChE potency relative to 6-chlorotacrine: 5 fold
  potency toward mAChE relative to hAChE: 3 fold
[3]; recombinant mouse AChE, mean ± SEM, read-out: mAChE IC50
  IC50: 4.12 ± 0.23 nM
[4]
  hBChE potency relative to 6-chlorotacrine: 3 fold
[4]; human serum BChE, mean ± SEM, n.a. = not active, % inhibition <10% at 100 μM, read-out: hBChE IC50
  IC50: 179 ± 90 nM
[5]; propidium iodide staining after 24 h of incubation, mean ± SD
  toxicity to SH-SY5Y cells LD50: >100 µM
[5]; supplementary CSV
  LD50 (SH-SY5Y): > 100 ?M
[6]; after 10 min at 37 °C
  % compound remaining non-metabolized, human microsomes: 82%
[6]; after 20 min at 37 °C
  % compound remaining non-metabolized, human microsomes: 74%
[6]; human, liver microsomes (pooled), pH 7.4, 37 °C
  microsomal CLint at 1 h: 8 µL/min/mg
[6]; human, liver microsomes (pooled), pH 7.4, 37 °C, read-out: t1/2, human microsomes
  half-life at 1 h: 91 min
[6]; human, liver microsomes (pooled), pH 7.4, after 1 h of incubation at 37 °C, read-out: % remaining compound, human microsomes
  remaining at 1 h: 55%
[7]; after 10 min
  amount of compound, mouse liver microsomes: 38%
[7]; after 20 min
  amount of compound, mouse liver microsomes: 4%
[7]; mouse, liver microsomes (pooled), pH 7.4, 37 °C
  microsomal CLint at 1 h, 0.05 µM: 155 µL/min/mg
[7]; mouse, liver microsomes (pooled), pH 7.4, 37 °C, read-out: t1/2, mouse microsomes
  half-life at 1 h, 0.05 µM: 4 min
[7]; mouse, liver microsomes (pooled), pH 7.4, after 1 h of incubation at 37 °C, read-out: % remaining compound, mouse microsomes
  remaining at 1 h, 0.05 µM: 2%
[8]; after 10 min
  % compound remaining unaltered, rat microsomes: 100%
[8]; after 20 min
  % compound remaining unaltered, rat microsomes: 79%
[8]; after 40 min
  % compound remaining unaltered, rat microsomes: 50%
[8]; rat, liver microsomes (pooled), pH 7.4, 37 °C
  microsomal CLint at 1 h, 0.05 µM: 26 µL/min/mg
[8]; rat, liver microsomes (pooled), pH 7.4, 37 °C, read-out: t1/2, rat microsomes
  half-life at 1 h, 0.05 µM: 26 min
[8]; rat, liver microsomes (pooled), pH 7.4, after 1 h of incubation at 37 °C, read-out: % remaining compound, rat microsomes
  remaining at 1 h, 0.05 µM: 21%
[9]
  IC50: 22.5 nM
[10]
  solubility at 2 h: 7.5 µM (≈ 4.64 µg/mL)
